Test results: ChEMBL document CHEMBL4354782, “Quinolone antibiotics” (Medchemcomm, 2019)
Values after ≈ are worked out from the molar mass of the structure shown.

Experiments:
[1] = Cmax in human at 0.4 g, po; assay type: ADME; design: dose 0.4 g, route oral; details: in vivo
Haemophilus influenzae = experiment: Antibacterial activity against Haemophilus influenzae with horse blood by agar diffusion method; assay type: functional
Escherichia coli = experiment: Antibacterial activity against Escherichia coli by agar diffusion method; assay type: functional
Pseudomonas aeruginosa = experiment: Antibacterial activity against Pseudomonas aeruginosa by agar diffusion method; assay type: functional
[2] = AUC in human at 0.4 g, po; assay type: ADME; details: in vivo
Klebsiella = experiment: Antibacterial activity against Klebsiella by agar diffusion method; assay type: functional
Staphylococcus aureus = experiment: Antibacterial activity against Staphylococcus aureus by agar diffusion method; assay type: functional
Enterococcus = experiment: Antibacterial activity against Enterococcus by agar diffusion method; assay type: functional
Streptococcus pyogenes = experiment: Antibacterial activity against Streptococcus pyogenes by agar diffusion method; assay type: functional
Streptococcus pneumoniae = experiment: Antibacterial activity against Streptococcus pneumoniae by agar diffusion method; assay type: functional
[3] = Half life in human at 0.4 g, po; assay type: ADME; details: in vivo
[4] = Protein binding in human at 0.4 g, po; assay type: ADME; details: in vivo, read-out: PB (converted)
[5] = Cmax in human at 0.4 g, po by HPLC analysis; assay type: ADME, organism-based; design: dose 0.4 g, route oral; details: in vivo
[6] = AUC in human at 0.4 g, po by HPLC analysis; assay type: ADME, organism-based; details: in vivo
[7] = Half life in human at 1 g, po administered for 4 times; assay type: ADME, organism-based; details: in vivo
Bacteroides fragilis = experiment: Antibacterial activity against Bacteroides fragilis by agar diffusion method; assay type: functional
Clostridium perfringens = experiment: microbe, parasite or virus in culture
[8] = AUC in human at 0.4 g, po bid; assay type: ADME, organism-based; details: in vivo
[9] = Half life in human at 0.4 g, po bid; assay type: ADME, organism-based; details: in vivo
[10] = Protein binding in human at 0.4 g, po bid; assay type: ADME, organism-based; details: in vivo, read-out: PB (converted)
[11] = Cmax in human at 0.4 g, po bid; assay type: ADME, organism-based; design: dose 0.4 g, route oral; details: in vivo
Homo sapiens = species: Homo sapiens; experiment: Phototoxicity in human; assay type: organism-based; details: in vivo
[12] = Toxicity in human assessed as gastrointestinal effect
[13] = Cardiotoxicity in human QTc prolongation; assay type: toxicity
[14] = Toxicity in human assessed as arthralgia effect
[15] = Haemolytic activity in human; assay type: ADME, organism-based; details: in vivo, read-out: Activity
[16] = Toxicity in human assessed as thrombocytopenia
[17] = Toxicity in human assessed as renal failure
[18] = Toxicity in human assessed as CNS effect by measuring dizziness
[19] = AUC in human at 0.3 g, po; assay type: ADME; details: in vivo
[20] = Cmax in human at 0.3 g, po; assay type: ADME; design: dose 0.3 g, route oral; details: in vivo
[21] = Toxicity in human assessed as hepatic eosinophilia effect

Structure (SMILES)	MIC90 (Haemophilus influenzae)	MIC90 (Escherichia coli)	MIC90 (Pseudomonas aeruginosa)	MIC90 (Klebsiella)	MIC90 (Staphylococcus aureus)	MIC90 (Enterococcus)	MIC90 (Streptococcus pyogenes)	MIC90 (Streptococcus pneumoniae)	MIC90 (Bacteroides fragilis)	MIC90 (Clostridium perfringens)	further results
CCn1cc(C(=O)O)c(=O)c2cc(F)c(N3CCNC(C)C3)c(F)c21 (centres undefined) [LOMEFLOXACIN]	0.06 µg/mL (≈ 0.171 µM)	0.06 µg/mL (≈ 0.171 µM)	2 µg/mL (≈ 5.69 µM)	0.25 µg/mL (≈ 0.712 µM)	2 µg/mL (≈ 5.69 µM)	4 µg/mL (≈ 11.4 µM)	4 µg/mL (≈ 11.4 µM)	4 µg/mL (≈ 11.4 µM)			Cmax [1]: 2800 ng/mL; AUC [2]: 26000 ng·h/mL; half-life [3]: 8 h; fraction unbound [4]: 0.9
COc1c(N2C[C@@H]3CCCN[C@@H]3C2)c(F)cc2c(=O)c(C(=O)O)cn(C3CC3)c12 [MOXIFLOXACIN]	0.06 µg/mL (≈ 0.149 µM)	0.06 µg/mL (≈ 0.149 µM)	8 µg/mL (≈ 19.9 µM)	0.12 µg/mL (≈ 0.299 µM)	0.06 µg/mL (≈ 0.149 µM)	2 µg/mL (≈ 4.98 µM)					Cmax [5]: 3100 ng/mL; AUC [6]: 30000 ng·h/mL
CCn1cc(C(=O)O)c(=O)c2ccc(C)nc21 [NALIDIXIC ACID]	2 µg/mL (≈ 8.61 µM)	8 µg/mL (≈ 34.4 µM)	> 64 µg/mL	16 µg/mL (≈ 68.9 µM)	> 64 µg/mL	> 64 µg/mL	> 64 µg/mL	> 64 µg/mL	> 64 µg/mL	> 64 µg/mL	half-life [7]: 1.5 h
CCn1cc(C(=O)O)c(=O)c2cc(F)c(N3CCNCC3)cc21 [NORFLOXACIN]	0.06 µg/mL (≈ 0.188 µM)	0.12 µg/mL (≈ 0.376 µM)	2 µg/mL (≈ 6.26 µM)	0.5 µg/mL (≈ 1.57 µM)	1 µg/mL (≈ 3.13 µM)	4 µg/mL (≈ 12.5 µM)	4 µg/mL (≈ 12.5 µM)	16 µg/mL (≈ 50.1 µM)	> 64 µg/mL		AUC [8]: 10000 ng·h/mL; half-life [9]: 3 h; fraction unbound [10]: 0.85; Cmax [11]: 1500 ng/mL
CC1COc2c(N3CCN(C)CC3)c(F)cc3c(=O)c(C(=O)O)cn1c23 (centres undefined) [OFLOXACIN]	0.03 µg/mL (≈ 0.083 µM)	0.12 µg/mL (≈ 0.332 µM)	4 µg/mL (≈ 11.1 µM)	0.5 µg/mL (≈ 1.38 µM)	0.5 µg/mL (≈ 1.38 µM)	2 µg/mL (≈ 5.53 µM)	2 µg/mL (≈ 5.53 µM)	2 µg/mL (≈ 5.53 µM)	16 µg/mL (≈ 44.3 µM)	1 µg/mL (≈ 2.77 µM)	AUC [8]: 64000 ng·h/mL; half-life [9]: 6 h; fraction unbound [10]: 0.6; Cmax [11]: 4800 ng/mL
C[C@@H]1CN(c2c(F)c(N)c3c(=O)c(C(=O)O)cn(C4CC4)c3c2F)C[C@H](C)N1 [SPARFLOXACIN]	0.03 µg/mL (≈ 0.0765 µM)	0.06 µg/mL (≈ 0.153 µM)	4 µg/mL (≈ 10.2 µM)	0.5 µg/mL (≈ 1.27 µM)	0.12 µg/mL (≈ 0.306 µM)	2 µg/mL (≈ 5.1 µM)	1 µg/mL (≈ 2.55 µM)	0.5 µg/mL (≈ 1.27 µM)	4 µg/mL (≈ 10.2 µM)	0.25 µg/mL (≈ 0.637 µM)	Cmax [1]: 1000 ng/mL; Activity (Homo sapiens): > 10%; Activity [12]: > 10%; AUC [2]: 20000 ng·h/mL; Activity [13]: 2.9%; Activity [14]: 0.5 to 2%; half-life [3]: 18 h; fraction unbound [4]: 0.6
CC1CN(c2cc3c(cc2F)c(=O)c(C(=O)O)cn3-c2ccc(F)cc2F)CCN1 (centres undefined) [TEMAFLOXACIN]											hemolysis [15]: 0.02%; Activity [16]: 0.02%; Activity [17]: 0.02%
N[C@@H]1[C@H]2CN(c3nc4c(cc3F)c(=O)c(C(=O)O)cn4-c3ccc(F)cc3F)C[C@@H]12 [TROVAFLOXACIN]	0.01 µg/mL (≈ 0.024 µM)	0.06 µg/mL (≈ 0.144 µM)	1 µg/mL (≈ 2.4 µM)		0.03 µg/mL (≈ 0.0721 µM)	1 µg/mL (≈ 2.4 µM)		0.12 µg/mL (≈ 0.288 µM)			Activity [18]: 2 to 11%; AUC [19]: 40000 ng·h/mL; Cmax [20]: 2500 ng/mL; Activity [21]: 12 to 16%
